Read-outs that look alike come from different tables or passages of the source.
Columns and labels:
[1] = Repeated dose 1- and 6-month oral toxicity, rats; type: in vivo; conditions: versus 80 mg oral dose in patients
From the text: However, there was a slightly lower exposure over time in rats compared to dogs. […] In vitro and in vivo metabolic studies have shown a large number of metabolites with qualitatively similar in vitro profiles in rats, dogs and man. […] Based on the pharmacokinetic parameters of BN83495, it is not expected to have any significant interaction with EGFR inhibitor/s which are metabolised predominantly by CYP3A4 (Roche products—Tarceva Product Information)
The no observed adverse effect level (NOAEL) was 200 mg/kg/day for males and 50 mg/kg/day for females.

[2] = cited from earlier work
[3] = molecular target: CYP2C19 (Homo sapiens, UniProt P33261); conditions: cited from earlier work
[4] = rats, single oral doses up to 1200 mg/kg; cited from earlier work
[5] = molecular target: T1, hERG current (Homo sapiens, UniProt Q12809); conditions: transfected HEK-293 cells, in vitro; read-out: hERG current inhibition IC50; cited from earlier work
T1 construct: expressed in transfected cells; host or cells: HEK-293

[6] = tested on: isolated Purkinje fibres; conditions: only at a high concentration of 50 μM; cited from earlier work
[7] = dogs, cited from earlier work
[8] = female patients, 80 mg oral dose; cited from earlier work
[9] = mice, 2000 mg/kg oral; cited from earlier work
[10] = rats, 2000 mg/kg oral; cited from earlier work
[11] = cited from earlier work; for no observed adverse effect level (NOAEL): rats, repeated oral dose
[12] = dogs, 50, 250 and 1000 mg/kg/day; cited from earlier work
[13] = molecular target: T2, STS (Homo sapiens, UniProt P08842); conditions: cited from earlier work
T2 construct: from tissue; host or cells: peripheral blood lymphocytes / mononuclear cells and breast tumour tissue of patients
T2 sequence (P08842 22-583): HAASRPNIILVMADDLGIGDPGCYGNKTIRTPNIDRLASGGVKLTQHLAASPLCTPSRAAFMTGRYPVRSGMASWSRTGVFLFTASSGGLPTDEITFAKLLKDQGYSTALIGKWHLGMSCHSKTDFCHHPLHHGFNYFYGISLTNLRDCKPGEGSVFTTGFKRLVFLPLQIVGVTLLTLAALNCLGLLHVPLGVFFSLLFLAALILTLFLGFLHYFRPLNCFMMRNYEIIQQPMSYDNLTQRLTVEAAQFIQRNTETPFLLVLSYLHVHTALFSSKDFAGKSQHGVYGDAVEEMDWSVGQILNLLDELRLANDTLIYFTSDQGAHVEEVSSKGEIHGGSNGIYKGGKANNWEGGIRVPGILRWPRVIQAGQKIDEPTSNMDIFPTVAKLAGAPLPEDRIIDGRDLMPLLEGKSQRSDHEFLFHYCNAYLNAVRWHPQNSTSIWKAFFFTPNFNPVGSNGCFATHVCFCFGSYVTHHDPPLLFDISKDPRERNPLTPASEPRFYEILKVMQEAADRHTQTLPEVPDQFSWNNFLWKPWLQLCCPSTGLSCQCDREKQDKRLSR

[14] = cited from earlier work; remark: listed apart in the source
[15] = molecular target: T2, STS; conditions: 40 mg dose; cited from earlier work
[16] = cited from earlier work; remark: listed apart in the source
[17] = tested on: STS; conditions: cited from earlier work
[18] = tested on: carcinogen-induced mammary tumours; conditions: ovariectomized rats; cited from earlier work
[19] = cited from earlier work; remark: listed apart in the source
[20] = Oral administration to radiotelemetry instrumented dogs for seven days; conditions: highest tested dose, versus 80 mg oral dose in patients
[21] = rats, 25, 50, 100 and 200 mg/kg/day

Chain of CYP2C19 (P33261 whole entry): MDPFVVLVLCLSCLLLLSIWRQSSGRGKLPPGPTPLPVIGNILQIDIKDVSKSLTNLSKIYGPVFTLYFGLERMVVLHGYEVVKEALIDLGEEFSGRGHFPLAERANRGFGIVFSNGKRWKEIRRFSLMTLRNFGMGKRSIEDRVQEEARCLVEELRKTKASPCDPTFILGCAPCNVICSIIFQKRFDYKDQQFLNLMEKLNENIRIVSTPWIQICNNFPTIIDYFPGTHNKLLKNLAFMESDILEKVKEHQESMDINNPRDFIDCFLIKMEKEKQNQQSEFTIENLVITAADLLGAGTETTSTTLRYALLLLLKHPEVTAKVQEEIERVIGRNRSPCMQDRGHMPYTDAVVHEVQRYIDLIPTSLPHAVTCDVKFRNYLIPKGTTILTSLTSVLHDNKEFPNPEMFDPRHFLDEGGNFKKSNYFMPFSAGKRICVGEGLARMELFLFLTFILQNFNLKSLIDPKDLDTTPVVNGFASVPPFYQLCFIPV
T1 sequence (Q12809 whole entry): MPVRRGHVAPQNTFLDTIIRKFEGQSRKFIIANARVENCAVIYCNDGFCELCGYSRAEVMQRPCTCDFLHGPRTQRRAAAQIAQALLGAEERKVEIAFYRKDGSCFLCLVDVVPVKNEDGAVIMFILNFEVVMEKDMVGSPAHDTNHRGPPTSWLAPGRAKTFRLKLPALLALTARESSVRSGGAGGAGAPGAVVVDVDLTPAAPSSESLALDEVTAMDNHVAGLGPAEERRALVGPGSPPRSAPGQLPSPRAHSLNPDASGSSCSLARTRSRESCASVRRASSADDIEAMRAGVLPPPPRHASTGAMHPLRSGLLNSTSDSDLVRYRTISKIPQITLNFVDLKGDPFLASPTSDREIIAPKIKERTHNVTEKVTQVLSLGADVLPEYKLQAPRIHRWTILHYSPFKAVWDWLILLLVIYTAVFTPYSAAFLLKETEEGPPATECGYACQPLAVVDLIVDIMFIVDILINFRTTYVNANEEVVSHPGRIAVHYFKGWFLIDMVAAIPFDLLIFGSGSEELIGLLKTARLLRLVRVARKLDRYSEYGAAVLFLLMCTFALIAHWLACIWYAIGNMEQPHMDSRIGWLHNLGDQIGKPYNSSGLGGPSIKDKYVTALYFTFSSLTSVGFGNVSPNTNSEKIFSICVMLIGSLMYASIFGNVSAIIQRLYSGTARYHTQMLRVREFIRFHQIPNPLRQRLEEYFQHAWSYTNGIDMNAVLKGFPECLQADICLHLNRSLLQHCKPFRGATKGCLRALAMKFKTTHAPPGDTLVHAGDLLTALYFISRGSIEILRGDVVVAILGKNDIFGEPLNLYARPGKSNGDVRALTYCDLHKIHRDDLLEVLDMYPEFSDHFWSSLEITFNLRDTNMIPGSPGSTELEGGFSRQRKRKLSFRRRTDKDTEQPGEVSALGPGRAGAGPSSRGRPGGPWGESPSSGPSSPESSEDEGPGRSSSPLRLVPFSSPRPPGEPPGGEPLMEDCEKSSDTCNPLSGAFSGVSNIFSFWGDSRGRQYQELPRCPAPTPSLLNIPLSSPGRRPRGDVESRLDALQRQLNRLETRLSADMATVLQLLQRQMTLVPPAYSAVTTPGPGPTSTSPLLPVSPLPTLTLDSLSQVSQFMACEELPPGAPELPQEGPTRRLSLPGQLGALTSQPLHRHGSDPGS

## NS(=O)(=O)Oc1ccc2c3c(c(=O)oc2c1)CCCCC3 [BN83495, Sulphamic acid, 6,7,8,9,10,11-hexahydro-6-oxobenzo[b]cyclohepta[d]pyran-3-yl ester]
[1]; female rats
  exposure (AUC) in rats relative to mean AUC in female patients: 14 fold
[1]; male rats
  exposure (AUC) in rats relative to mean AUC in female patients: 31 fold
[2]
  protein binding: highly protein bound
[3]
  potential clinically significant induction/inhibition of a CYP450 isoenzyme: inhibition of CYP2C19
[4]
  effect on behaviour or respiration: no effect on behaviour or respiration
[5]
  IC50: 13 µM
[6]
  action potential duration (APD): increased action potential duration
[7]; at both doses (150 and 400 mg/kg/day)
  haemodynamic effects: transient hypotension and reflex tachycardia
[7]; oral 150 and 400 mg/kg/day for seven consecutive days
  ECG changes: did not induce any clinically relevant ECG changes
[8]
  mean steady state plasma AUC: 1293 ng·h/mL
  mean steady state plasma Cmax: 159 ng/mL
[9]
  adverse effects in single dose oral toxicity study: did not show any adverse effects
[10]
  adverse effects in single dose oral toxicity study: did not show any adverse effects
[11]; 6-month repeat dose rat toxicology studies, Day 1
  plasma exposure versus dose: proportional to dose
[11]; [21]
  bone findings (femur, tibia and sternum): partially reversible osteoid deposition at all treated dose-levels
  liver findings: reversible hepatocellular vacuolation in all treated groups
[11]; females
  no observed adverse effect level (NOAEL): 50 mg/kg/day
[11]; males
  no observed adverse effect level (NOAEL): 200 mg/kg/day
[12]
  adrenal findings: adrenal cortical cell hypertrophy was seen in all treated animal groups
  kidney findings: flattened tubular epithelium in one high dose animal/sex
  liver findings: hepatocellular vacuolation in both sexes at 50 mg/kg/day and in females at 250 and 1000 mg/kg/day
[13]; 5 mg dose
  patients with more than 90% STS inhibition in tumour tissue: 3 out of 4
[13]; 20 mg dose, patients in whom it was measured
  patients with more than 90% STS inhibition in tumour tissue: all 3
[13]; 24 hours after dosing on Day 5, both dose groups (5 mg, 20 mg daily)
  inhibition of STS activity in peripheral blood lymphocytes: more than 90%
[14]; 14 patients, 5 mg or 20 mg
  best response: stable disease: 4 patients
[14]; Day 5 assessment
  serum concentrations of oestradiol, androstenediol and testosterone: significant decreases
[14]; both tested doses (5 mg, 20 mg)
  tolerability: well tolerated
[14]; patients, 5 mg and 20 mg
  dose proportionality of Cmax, AUC and mean plasma clearance: non dose proportional pharmacokinetics
[14]; patients, 5 mg or 20 mg
  serum DHEA concentration: significant decreases
[15]
  inhibition of STS in peripheral blood mononuclear cells: 95%
[16]; doses 1 mg up to 80 mg
  tolerability: well tolerated up to a dose of 40 mg
[16]; observed in 2 patients
  drug-related adverse events, Grade 3: 4
[16]; preliminary review of ECG data
  effect on ECG parameters: does not have an effect on ECG parameters
[16]; three higher dose groups
  patients with stable disease for more than 6 months: Four
[16]; up to a dose of 40 mg
  dose limiting toxicity: no dose limiting toxicity was observed
[17]; in vivo
  STS inhibition in rodents: potent STS inhibitor
[18]
  growth of mammary tumours stimulated by estrone sulphate (E1S): blocked the ability of estrone sulphate (E1S) to stimulate the growth
[19]; non-clinical studies
  absorption: rapid absorption
[19]; preclinical models, by biotransformation
  elimination of radioactivity: mainly via urine
[19]; rats, primarily in blood and related organs, intestine, liver and kidneys
  distribution: widely distributed
[19]; uptake and retention related to carbonic anhydrase II enzyme
  erythrocyte uptake: sequestered in erythrocytes
[20]
  mean maximum plasma exposure relative to mean steady state plasma AUC in female patients: 62 fold
  mean maximum plasma exposure relative to mean steady state plasma Cmax in female patients: 103 fold

## CCCN1C(=O)CC2C3CCc4cc(OS(N)(=O)=O)ccc4C3CC[C@]2(C)C1=O (some centres unmarked) [STX213]
[17]; rodents
  STS inhibition in rodents: effectively inhibit STS activity

Source: US20110190244A1, “METHOD OF TREATMENT OF EGFR INHIBITOR TOXICITY” (priority 2010, published 2011)
